Test results from patent US5389627A, “Cephem compounds” (priority 1993, dated 1995).
Converted amounts (≈) assume the structure as drawn. Read-outs that look alike come from different tables or passages of the source. Each block holds one compound with its values, some of them ahead of it.

Assays:
[1] = Pharmacokinetics (plasma half-life); assay type: in vivo; details: SD Rat, mean value, read-out: Half-Life (T1/2)
Description: In order to investigate the pharmacokinetics properties of the compounds according to the present invention, the plasma half-life was determined in accordance with the method described in Antimicrobial Agents and Chemotherapy, 26(2), p.

[2] = test system: S.pyogenes ATCC 8668; experiment: In vitro antibacterial activity, minimum inhibitory concentration; assay type: cell-based; details: Streptococcus pyogenes
From the text: (§1) As reference compounds, Cefotaxime (CTX), Ceftazidime (CAZ) and Cefpirome (CPR) were employed.

[3] = test system: S.marcescens ATCC27117; experiment: as above; assay type: cell-based; details: Serratia marcescens
From the text: as §1

[4] = test system: P.aeruginosa ATCC10145; experiment: as above; assay type: cell-based; details: Pseudomonas aeruginosa
From the text: as §1

[5] = test system: P.mirabilis ATCC25933; experiment: as above; assay type: cell-based; details: Proteus mirabilis
From the text: as §1

[6] = test system: MRSA C2208; experiment: as above; assay type: cell-based; details: Staphylococcus aureus, read-out: Minimum Inhibitory Concentration (MIC)
From the text: as §1

[7] = test system: S.aureus ATCC29213; experiment: as above; assay type: cell-based; details: Staphylococcus aureus
From the text: as §1

[8] = test system: E.coli ATCC25922; experiment: as above; assay type: cell-based; details: Escherichia coli
From the text: as §1

[9] = test system: E.cloacae C4008; experiment: as above; assay type: cell-based; details: Enterobacter cloacae
From the text: as §1

[10] = test system: K.pneumoniae ATCC10031; experiment: as above; assay type: cell-based; details: Klebsiella pneumoniae
From the text: as §1

[11] = test system: E.coli ATCC10536; experiment: as above; assay type: cell-based; details: Escherichia coli
From the text: as §1

[12] = test system: S.Faecalis ATCC29212; experiment: as above; assay type: cell-based; details: Enterococcus faecalis
From the text: as §1

[13] = test system: S.aureus Smith; experiment: as above; assay type: cell-based; details: Staphylococcus aureus, read-out: Minimum Inhibitory Concentration (MIC)
From the text: as §1

[14] = test system: S.typhimurium C4045; experiment: as above; assay type: cell-based; details: Salmonella enterica, read-out: Minimum Inhibitory Concentration (MIC)
From the text: as §1

[15] = test system: E.coli C4002; experiment: as above; assay type: cell-based; details: Escherichia coli
From the text: as §1

[16] = test system: P.aeruginosa C4070; experiment: as above; assay type: cell-based; details: Pseudomonas aeruginosa
From the text: as §1

[17] = test system: S.marcescens C1052; experiment: as above; assay type: cell-based; details: Serratia marcescens
From the text: as §1

[18] = test system: S.pyogenes C4003; experiment: as above; assay type: cell-based; details: Streptococcus pyogenes
From the text: as §1

[19] = test system: K.pneumoniae C1040; experiment: as above; assay type: cell-based; details: Klebsiella pneumoniae
From the text: as §1

[20] = test system: P.aeruginosa C2027; experiment: as above; assay type: cell-based; details: Pseudomonas aeruginosa
From the text: as §1

[21] = test system: E.cloacae C4009; experiment: as above; assay type: cell-based; details: Enterobacter cloacae
From the text: as §1

[22] = test system: P.rettgeri ATCC9919; experiment: as above; assay type: cell-based; details: Providencia rettgeri
From the text: as §1

[23] = test system: K.oxytoca C4022; experiment: as above; assay type: cell-based; details: Klebsiella oxytoca
From the text: as §1

[24] = test system: S.aureus C4036; experiment: as above; assay type: cell-based; details: Staphylococcus aureus
From the text: as §1

[25] = test system: P.aeruginosa ATCC27853; experiment: as above; assay type: cell-based; details: Pseudomonas aeruginosa
From the text: as §1

[26] = test system: S.epidermidis ATCC12228; experiment: as above; assay type: cell-based; details: Staphylococcus epidermidis
From the text: as §1

half-life [1]: 19.5 min
MIC ([2]; ATCC8668, S.pyogenes ATCC 8668, read-out: Minimum Inhibitory Concentration (MIC)): 0.007 µg/mL (≈ 0.0136 µM)
MIC ([3]; S.marcescens ATCC27117, read-out: Minimum Inhibitory Concentration (MIC)): 0.05 µg/mL (≈ 0.0972 µM)
MIC ([4]; P.aeruginosa ATCC10145, read-out: Minimum Inhibitory Concentration (MIC)): 6.25 µg/mL (≈ 12.1 µM)
MIC ([5]; P.mirabilis ATCC25933, read-out: Minimum Inhibitory Concentration (MIC)): 0.05 µg/mL (≈ 0.0972 µM)
MIC ([6]; MRSA C2208): > 100 µg/mL
MIC ([7]; S.aureus ATCC29213, read-out: Minimum Inhibitory Concentration (MIC)): 0.78 µg/mL (≈ 1.52 µM)
MIC ([8]; E.coli ATCC25922, read-out: Minimum Inhibitory Concentration (MIC)): 0.05 µg/mL (≈ 0.0972 µM)
MIC ([9]; E.cloacae C4008, read-out: Minimum Inhibitory Concentration (MIC)): 0.013 µg/mL (≈ 0.0253 µM)
MIC ([10]; K.pneumoniae ATCC10031, read-out: Minimum Inhibitory Concentration (MIC)): 0.013 µg/mL (≈ 0.0253 µM)
MIC ([11]; E.coli ATCC10536, read-out: Minimum Inhibitory Concentration (MIC)): 0.013 µg/mL (≈ 0.0253 µM)
MIC [12]: 50 µg/mL (≈ 97.2 µM)
MIC ([13]; S.aureus Smith): 0.39 µg/mL (≈ 0.758 µM)
MIC ([14]; S.typhimurium C4045): 0.025 µg/mL (≈ 0.0486 µM)
MIC ([15]; E.coli C4002, read-out: Minimum Inhibitory Concentration (MIC)): 0.05 µg/mL (≈ 0.0972 µM)
MIC ([16]; P.aeruginosa C4070, read-out: Minimum Inhibitory Concentration (MIC)): 6.25 µg/mL (≈ 12.1 µM)
MIC ([17]; S.marcescens C1052, read-out: Minimum Inhibitory Concentration (MIC)): 0.05 µg/mL (≈ 0.0972 µM)
MIC ([18]; S.pyogenes C4003, read-out: Minimum Inhibitory Concentration (MIC)): 0.007 µg/mL (≈ 0.0136 µM)
MIC ([19]; K.pneumoniae C1040, read-out: Minimum Inhibitory Concentration (MIC)): 0.025 µg/mL (≈ 0.0486 µM)
MIC ([20]; P.aeruginosa C2027, read-out: Minimum Inhibitory Concentration (MIC)): 0.39 µg/mL (≈ 0.758 µM)
MIC ([21]; E.cloacae C4009, read-out: Minimum Inhibitory Concentration (MIC)): 0.013 µg/mL (≈ 0.0253 µM)
MIC ([22]; P.rettgeri ATCC9919, read-out: Minimum Inhibitory Concentration (MIC)): 0.013 µg/mL (≈ 0.0253 µM)
MIC ([23]; K.oxytoca C4022, read-out: Minimum Inhibitory Concentration (MIC)): 1.56 µg/mL (≈ 3.03 µM)
MIC ([24]; S.aureus C4036, read-out: Minimum Inhibitory Concentration (MIC)): 0.39 µg/mL (≈ 0.758 µM)
MIC ([25]; P.aeruginosa ATCC27853, read-out: Minimum Inhibitory Concentration (MIC)): 3.13 µg/mL (≈ 6.08 µM)
MIC ([26]; S.epidermidis ATCC12228, read-out: Minimum Inhibitory Concentration (MIC)): 0.2 µg/mL (≈ 0.389 µM)
Structure (SMILES): CO/N=C(\C(=O)N[C@@H]1C(=O)N2C(C(=O)[O-])=C(C[n+]3cccc4c3CCC4)CS[C@H]12)c1csc(N)n1 [CPR, Cefpirome, reference compound]

Structure (SMILES): CC(C)(O/N=C(\C(=O)N[C@@H]1C(=O)N2C(C(=O)[O-])=C(C[n+]3ccccc3)CS[C@H]12)c1csc(N)n1)C(=O)O [CAZ, Ceftazidime, reference compound]
half-life ([1]; in vivo): 12.3 min
MIC ([2]; ATCC8668, read-out: Minimum Inhibitory Concentration (MIC)): 0.1 µg/mL (≈ 0.183 µM)
MIC ([3]; ATCC27117, read-out: Minimum Inhibitory Concentration (MIC)): 0.1 µg/mL (≈ 0.183 µM)
MIC ([4]; ATCC10145, read-out: Minimum Inhibitory Concentration (MIC)): 1.56 µg/mL (≈ 2.85 µM)
MIC ([5]; ATCC25933, read-out: Minimum Inhibitory Concentration (MIC)): 0.05 µg/mL (≈ 0.0915 µM)
MIC ([6]; MRSA): > 100 µg/mL
MIC ([7]; ATCC29213, read-out: Minimum Inhibitory Concentration (MIC)): 6.25 µg/mL (≈ 11.4 µM)
MIC ([8]; ATCC25922, read-out: Minimum Inhibitory Concentration (MIC)): 0.2 µg/mL (≈ 0.366 µM)
MIC ([9]; C4008, read-out: Minimum Inhibitory Concentration (MIC)): 0.05 µg/mL (≈ 0.0915 µM)
MIC ([10]; ATCC10031, read-out: Minimum Inhibitory Concentration (MIC)): 0.05 µg/mL (≈ 0.0915 µM)
MIC ([11]; ATCC10536, read-out: Minimum Inhibitory Concentration (MIC)): 0.05 µg/mL (≈ 0.0915 µM)
MIC [12]: > 100 µg/mL
MIC [13]: 6.25 µg/mL (≈ 11.4 µM)
MIC ([14]; TYPHIMURIUM): 0.2 µg/mL (≈ 0.366 µM)
MIC ([15]; C4002, read-out: Minimum Inhibitory Concentration (MIC)): 0.1 µg/mL (≈ 0.183 µM)
MIC ([16]; C4070, read-out: Minimum Inhibitory Concentration (MIC)): 1.56 µg/mL (≈ 2.85 µM)
MIC ([17]; C1052, read-out: Minimum Inhibitory Concentration (MIC)): 0.2 µg/mL (≈ 0.366 µM)
MIC ([18]; C4003, read-out: Minimum Inhibitory Concentration (MIC)): 0.2 µg/mL (≈ 0.366 µM)
MIC ([19]; C1040, read-out: Minimum Inhibitory Concentration (MIC)): 0.05 µg/mL (≈ 0.0915 µM)
MIC ([20]; C2027, read-out: Minimum Inhibitory Concentration (MIC)): 0.78 µg/mL (≈ 1.43 µM)
MIC ([21]; C4009, read-out: Minimum Inhibitory Concentration (MIC)): 0.05 µg/mL (≈ 0.0915 µM)
MIC ([22]; ATCC9919, read-out: Minimum Inhibitory Concentration (MIC)): 0.025 µg/mL (≈ 0.0457 µM)
MIC ([23]; C4022, read-out: Minimum Inhibitory Concentration (MIC)): 0.78 µg/mL (≈ 1.43 µM)
MIC ([24]; C4036, read-out: Minimum Inhibitory Concentration (MIC)): 6.25 µg/mL (≈ 11.4 µM)
MIC ([25]; ATCC27853, read-out: Minimum Inhibitory Concentration (MIC)): 3.13 µg/mL (≈ 5.73 µM)
MIC ([26]; ATCC12228, read-out: Minimum Inhibitory Concentration (MIC)): 3.13 µg/mL (≈ 5.73 µM)
